We go through 3 molecules from patent US6558686B1, “Method of coating medical devices with a combination of antiseptics and antiseptic coating therefor” (Baylor College of Medicine, priority 1995, dated 2003).

SMILES strings stand for the structures.

The subject of data set [1] is Staph. epidermidis. Description: Zones of inhibition, coated stainless steel cylinders on agar (Example 1). The class given is cell-based, Staphylococcus epidermidis. Conditions: coated stainless steel cylinder, 18-24 hours at 37° C. How it is done: (§1) Antiseptic coatings were applied to each of four stainless steel cylinders (0.5″ diameter×2″ length), using each of the above four antiseptic solutions, by dipping each cylinder for 1 minute at 50° C. in the respective solution.

The subject of data set [2] is Pseud. aeruginosa. Described as above. It is filed as cell-based, Pseudomonas aeruginosa. Conditions: coated stainless steel cylinder, 18-24 hours at 37° C. How it is done: as §1
The subject of data set [3] is Candida albicans. The data set is described as above. It is filed as cell-based. Conditions: coated stainless steel cylinder, 18-24 hours at 37° C. How it is done:
as §1

In data set [4] the test system is Candida albicans. The data set is described as follows: Antimicrobial activity of coated silicone urinary catheters, initial and after 1 week in urine (Example 5). The class given is cell-based. Conditions: for Candida albicans 1 week (antimicrobial activity of coated catheter): catheter segments incubated in urine for 1 week at 37° C.; for Candida albicans Initial (antimicrobial activity of coated catheter): silicone urinary catheter. The procedure: (§2) A first antiseptic solution was formed by dissolving chloroxylenol (200 mg/ml) in an 85:15 solution of butyl acetate: methanol that has NaOH (5 mg/ml of methanol). A second antiseptic solution was formed by dissolving thymol (150 mg/ml) in an 85:15 solution of butyl acetate: methanol that has NaOH (5 mg/ml of methanol). A third antiseptic solution was formed by dissolving chloroxylenol (200 mg/ml) and thymol (150 mg/ml) in an 85:15 solution of butyl acetate: methanol that has NaOH (5 mg/ml of methanol). Eighteen-french silicone urinary catheters were dipped in one of the above coating solutions for 1 hour at 45° C. The catheters were allowed to dry overnight then rinsed.

Data set [5] has as its system E. coli. The description is as above. The conditions noted are these: for E. coli 1 week (antimicrobial activity of coated catheter): catheter segments incubated in urine for 1 week at 37° C.; for E. coli Initial (antimicrobial activity of coated catheter): silicone urinary catheter. It is filed as cell-based. The procedure:
as §2

Data set [6] deals with Enterococcus. The description is as above. It is filed as cell-based. The conditions noted are these: for Enterococcus 1 week (antimicrobial activity of coated catheter): catheter segments incubated in urine for 1 week at 37° C.; for Enterococcus Initial (antimicrobial activity of coated catheter): silicone urinary catheter. How it is done: as §2
Data set [7] concerns S. epidermidis. The data set is described as above. It is filed as cell-based. The conditions noted are these: for S. epidermidis 1 week (antimicrobial activity of coated catheter): catheter segments incubated in urine for 1 week at 37° C.; for S. epidermidis Initial (antimicrobial activity of coated catheter): silicone urinary catheter. How it is done:
as §2

Data set [8] concerns Pseudomonas. The data set is described as above. It is filed as cell-based, Pseudomonas aeruginosa. The conditions noted are these: for Pseudomonas 1 week (antimicrobial activity of coated catheter): catheter segments incubated in urine for 1 week at 37° C.; for Pseudomonas Initial (antimicrobial activity of coated catheter): silicone urinary catheter. The procedure: as §2
Data set [9] has as its system P. aerug. The data set is described as follows: Zones of inhibition, single-layer coated stainless steel cylinders (Example 4). The class given is cell-based. Conditions: single-layer coated stainless steel cylinder, 18-24 hours at 37° C.
Method: (§3) Stainless steel cylinders (0.5×2″) were dipped in one of the three antiseptic coating solutions for 1 minute at 50° C. Devices were allowed to dry for at least 4 hours, then placed into agar plates that had been freshly overlaid with one of the microorganisms shown below in Table 4. After 18-24 hours of incubation at 37° C., the following measurements of zones of inhibition were recorded.
Data set [10] concerns Candida albicans. The data set is described as above. The class given is cell-based. Conditions: single-layer coated stainless steel cylinder, 18-24 hours at 37° C.
Method: as §3
For data set [11] the following is noted: cited from earlier work.
The subject of data set [12] is S. epidermidis. Description: Zones of inhibition, single-layer coated stainless steel cylinders (Example 4). Conditions: single-layer coated stainless steel cylinder, 18-24 hours at 37° C.
Method: as §3

As to `Cc1ccc(C(C)C)c(O)c1` [Thymol, 5-methyl-2 isopropyl phenol], the “Zones of inhibition Staph. epidermidis” value in data set [1] was found to be 23 m.m. In addition, the “Zones of inhibition Pseud. aeruginosa” value in data set [2] amounted to 18 m.m. Also, the “Zones of inhibition Candida albicans” value in data set [3] is given as 14 m.m. For the same molecule, in [4], the “Candida albicans 1 week (antimicrobial activity of coated catheter)” value came out at 38 and the “Candida albicans Initial (antimicrobial activity of coated catheter)” value amounted to 60. Moreover, in [5], the “E. coli 1 week (antimicrobial activity of coated catheter)” value is reported as 28 and the “E. coli Initial (antimicrobial activity of coated catheter)” value was 35. Further, in data set [6], the “Enterococcus 1 week (antimicrobial activity of coated catheter)” value stood at 17 and the “Enterococcus Initial (antimicrobial activity of coated catheter)” value amounted to 28. Further, in data set [7], the “S. epidermidis 1 week (antimicrobial activity of coated catheter)” value is 30 and the “S. epidermidis Initial (antimicrobial activity of coated catheter)” value is given as 38. In data set [8], the “Pseudomonas 1 week (antimicrobial activity of coated catheter)” value is recorded as 0 and the “Pseudomonas Initial (antimicrobial activity of coated catheter)” value was found to be 11.
Regarding `Cc1cc(O)cc(C)c1Cl` [Chloroxylenol, 4-chloro, 3,5-dimethyl phenol], in data set [4], the “Candida albicans 1 week (antimicrobial activity of coated catheter)” value amounted to 26 and the “Candida albicans Initial (antimicrobial activity of coated catheter)” value was 30. In data set [5], the “E. coli 1 week (antimicrobial activity of coated catheter)” value is 11 and the “E. coli Initial (antimicrobial activity of coated catheter)” value is 15. Also, in [6], the “Enterococcus 1 week (antimicrobial activity of coated catheter)” value is 10 and the “Enterococcus Initial (antimicrobial activity of coated catheter)” value amounted to 13. Further, in data set [7], the “S. epidermidis 1 week (antimicrobial activity of coated catheter)” value stood at 20 and the “S. epidermidis Initial (antimicrobial activity of coated catheter)” value is reported as 25. In data set [8], the “Pseudomonas 1 week (antimicrobial activity of coated catheter)” value is 0 and the “Pseudomonas Initial (antimicrobial activity of coated catheter)” value amounted to 10.
`[H]/N=C(\N/C(=N/[H])NCCCCCCNC(=N)NC(=N)Nc1ccc(Cl)cc1)Nc1ccc(Cl)cc1` [Chlorhexidine]: the “Zones of inhibition Staph. epidermidis” value in data set [1] was 31 m.m. Moreover, in data set [2], the “Zones of inhibition Pseud. aeruginosa” value was determined as 28 m.m. The entries for the “Zones of inhibition Candida albicans” value in data set [3] and in data set [10] were 26 m.m and 28 m.m, respectively. Further, the “Zones of inhibition P. aerug” value in data set [9] was 25 m.m. For the same molecule, in [11] (acetic acid), the “Solubility in acetic acid” value is recorded as “soluble”. Also, the “Solubility in formic acid” value in data set [11] (formic acid) was “soluble”. Moreover, the “Solubility in organic solvents” value in data set [11] (organic solvents) is given as “generally not soluble”. In addition, the “Zones of inhibition S. epidermidis” value in [12] is given as 30 m.m.
